IC50 data for 15 compounds are collected here from patent US8389557B2, “Triazole derivatives useful as Axl inhibitors” (Rigel Pharmaceuticals, Inc., priority 2005, dated 2013).

The structures appear in SMILES notation. Where only a bound is given, the exact number is not on record here.

For the experiment, the target named is T1, Axl (Homo sapiens, UniProt P30530).
T1 construct: endogenous in cells; host or cells: HeLa cells
T1 sequence (P30530 26-894): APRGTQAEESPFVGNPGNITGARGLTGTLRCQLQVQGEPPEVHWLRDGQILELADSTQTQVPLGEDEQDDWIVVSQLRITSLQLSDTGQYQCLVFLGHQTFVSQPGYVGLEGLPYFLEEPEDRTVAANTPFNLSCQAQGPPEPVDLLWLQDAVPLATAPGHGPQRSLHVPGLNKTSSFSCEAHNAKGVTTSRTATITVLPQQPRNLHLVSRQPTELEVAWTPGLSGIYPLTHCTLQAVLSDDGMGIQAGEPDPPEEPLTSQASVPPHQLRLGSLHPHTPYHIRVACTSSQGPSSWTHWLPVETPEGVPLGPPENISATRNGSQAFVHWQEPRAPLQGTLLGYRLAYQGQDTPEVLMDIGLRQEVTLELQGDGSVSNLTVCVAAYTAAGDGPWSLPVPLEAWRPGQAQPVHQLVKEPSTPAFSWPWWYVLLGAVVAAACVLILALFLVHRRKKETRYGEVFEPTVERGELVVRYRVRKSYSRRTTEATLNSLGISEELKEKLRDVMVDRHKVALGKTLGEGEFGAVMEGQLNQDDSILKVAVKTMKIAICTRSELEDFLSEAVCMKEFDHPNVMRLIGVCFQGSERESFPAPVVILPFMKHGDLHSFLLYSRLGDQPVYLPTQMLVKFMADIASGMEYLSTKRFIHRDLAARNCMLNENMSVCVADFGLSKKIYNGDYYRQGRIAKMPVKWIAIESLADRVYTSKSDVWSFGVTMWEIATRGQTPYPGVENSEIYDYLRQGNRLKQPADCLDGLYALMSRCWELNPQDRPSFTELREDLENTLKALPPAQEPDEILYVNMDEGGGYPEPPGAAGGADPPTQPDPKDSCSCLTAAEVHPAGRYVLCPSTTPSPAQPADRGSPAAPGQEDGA
The experiment in a line: Phospho-Akt in-cell Western assay (inhibition of Axl activity). It counts as cell-based. A digest of the protocol: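 HeLa cells on poly-L-lysine, starved 24 h in 0.5% FCS DMEM with Axl/Fc 500 ng/mL, pre-treated with compound 1 h at 37° C. Axl stimulated 5 min by anti-Axl/anti-mouse antibody cross-linking. Fixed cells probed with anti-phospho-Akt and HRP secondary, chemiluminescence read.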

Setting [1] is: inhibition of Axl activity, Table 1.
Setting [2] is: Table 5, Hela cells, Axl antibody cross-linking stimulation, phospho-Akt chemiluminescence.
The mark [3] stands for this setting: Table 7, Hela cells, Axl antibody cross-linking stimulation, phospho-Akt chemiluminescence.
[4] abbreviates: inhibition of Axl activity, phospho-Akt in-cell Western assay, Table 1.

As a reminder, the IC50 is the point on the concentration scale where inhibition reaches its midpoint. Lower therefore signals inhibition by little substance.

On to `NC(=O)COc1cccc(C(=O)n2nc(Nc3ccc4c(c3)OCCO4)nc2N)c1` [compound 231, 5-amino-1-(3-aminocarbonylmethoxy)phenylcarbonyl-3-(1,4-benzodioxan-6-yl)amino-1H-1,2,4-triazole], for which the IC50 under setting [1] is > 20 µM.
`Nc1nc(Nc2ccc3c(c2)OCCO3)nn1C(=O)c1ccc(OC2CCCC2)cc1` [compound 120]: under setting [1], the IC50 was > 20 µM.
Turning to `Cc1cccc(C(=O)n2nc(Nc3ccc4[nH]ncc4c3)nc2N)c1` [compound 154, 5-amino-3-(indazol-5-yl)amino-1-(3-(methyl)phenyl)carbonyl-1H-1,2,4-triazole], the half-maximal inhibitory concentration (IC50) under setting [2] fell in the range of 1 to 10 µM.
`Cc1ccccc1C(=O)n1nc(Nc2cccc(O)c2)nc1N` [(Ia-6), 5-amino-3-[3-(hydroxy)phenylamino]-1-(2-(methyl)phenyl)carbonyl-1H-1,2,4-triazole]: the IC50 under setting [1] is > 20 µM.
For `Cc1cccc(C(=O)n2nc(Nc3ccc4snc(C)c4c3)nc2N)c1` [compound 260, 5-amino-3-(3-methyl-1,2-benzisothiazol-5-yl)amino-1-(3-methylphenyl)carbonyl-1H-1,2,4-triazole], the concentration for half-maximal inhibition (IC50) under setting [2] was > 20 µM.
Regarding `N#Cc1ccc(NC(=O)n2nc(Nc3ccc(OCCN4CCCCC4)cc3)nc2N)cc1` [compound 194, 5-amino-N-(4-cyanophenyl)-3-[4-[2-(piperidin-1-yl)ethoxy]phenylamino]-1H-1,2,4-triazole-1-carboxamide], under setting [3], the IC50 is > 20 µM.
The compound `Cc1cc(C)cc(C(=O)n2nc(Nc3ccc4c(c3)OCCO4)nc2N)c1` [compound 239, 5-amino-3-(1,4-benzodioxan-6-yl)amino-1-(3,5-dimethylphenyl)carbonyl-1H-1,2,4-triazole] showed an IC50 under setting [4] of 1 to 10 µM.
For `CC(C)Oc1ccc(C(=O)n2nc(Nc3ccc(OCCN4CCCC4)cc3)nc2N)cc1` [(Ia-2), 5-amino-1-(4-(iso-propoxy)phenyl)carbonyl-3-[4-[2-(pyrrolidin-1-yl)ethoxy]phenylamino]-1H-1,2,4-triazole], the half-inhibitory concentration (IC50) under setting [4] is < 1 µM.
For `Cc1cc(C(=O)n2nc(Nc3ccc4c(c3)OCCO4)nc2N)ccc1OC(C)C` [compound 258, 5-amino-3-(1,4-benzodioxan-6-yl)amino-1-(3-methyl-4-iso-propoxy)phenylcarbonyl-1H-1,2,4-triazole], the IC50 under setting [1] fell in the range of 1 to 10 µM.
For `CC(C)(C)c1ccc(C(=O)n2nc(Nc3ccc(OCCN4CCCCCC4)cc3)nc2N)cc1` [compound 320, 5-amino-1-(4-(tert-butyl)phenyl)carbonyl-3-[4-[2-(azepan-1-yl)ethoxy]phenylamino]-1H-1,2,4-triazole], the IC50 under setting [4] was < 1 µM.
Turning to `Cc1ccc(C(=O)n2nc(N)nc2Nc2ccc3c(c2)OCCO3)cc1C` [compound 236, 3-amino-1-(3,4-dimethylphenyl)carbonyl-5-(1,4-benzodioxan-6-yl)amino-1H-1,2,4-triazole], the IC50 (Table 2, Hela cells, Axl antibody cross-linking stimulation, phospho-Akt chemiluminescence) was > 20 µM.
Consider `Nc1nc(Nc2ccc(OCCN3CCCCC3)cc2)n(C(=O)NC2CCCCC2)n1` [compound 189, 3-amino-N-cyclohexyl-5-[4-[2-(piperidin-1-yl)ethoxy]phenylamino]-1H-1,2,4-triazole-1-carboxamide], for which the IC50 (Table 8, Hela cells, Axl antibody cross-linking stimulation, phospho-Akt chemiluminescence) was 1 to 10 µM.
Under setting [3], `Nc1nc(Nc2ccc(OCCN3CCCC3)cc2)nn1C(=O)Nc1ccc2c(c1)OCO2` [compound 36, 5-amino-N-(1,3-benzodioxol-5-yl)-3-[4-[2-(pyrrolidin-1-yl)ethoxy]phenylamino]-1H-1,2,4-triazole-1-carboxamide] gave an IC50 of 1 to 10 µM.
As to `CC(C)(C)Oc1ccc(C(=O)n2nc(Nc3ccc(OCCCN4CCCC4)cc3)nc2N)cc1` [compound #15, 5-Amino-3-[4-[3-(pyrrolidin-1-yl)propoxy]phenylamino]-1-(4-(tert-butoxy)phenyl)carbonyl-1H-1,2,4-triazole], under setting [4], the IC50 is < 1 µM.
Under setting [3], `COc1ccc(NC(=O)n2nc(Nc3ccc(OCCN4CCCCC4)cc3)nc2N)cc1` [compound 40, 5-amino-N-(4-(methoxy)phenyl)-3-[4-[2-(piperidin-1-yl)ethoxy]phenylamino]-1H-1,2,4-triazole-1-carboxamide] showed an IC50 of 1 to 10 µM.
